Measurements taken from patent publication US20220168307A1, “TREATMENT OF SMA” (Hoffmann-La Roche Inc., priority 2019, published 2022).
Where “and” joins values, the source holds several entries; their conditions need not be identical. Equal entries are not always repeated. Entries after “also recorded” stand apart in the source; their conditions may differ. Where two headings read alike, the source gives them in different places.

Columns and labels:
CYP1A2 = target: T1, CYP1A2 (Homo sapiens, UniProt P05177); experiment: biochemical
T1 sequence (P05177 1-516): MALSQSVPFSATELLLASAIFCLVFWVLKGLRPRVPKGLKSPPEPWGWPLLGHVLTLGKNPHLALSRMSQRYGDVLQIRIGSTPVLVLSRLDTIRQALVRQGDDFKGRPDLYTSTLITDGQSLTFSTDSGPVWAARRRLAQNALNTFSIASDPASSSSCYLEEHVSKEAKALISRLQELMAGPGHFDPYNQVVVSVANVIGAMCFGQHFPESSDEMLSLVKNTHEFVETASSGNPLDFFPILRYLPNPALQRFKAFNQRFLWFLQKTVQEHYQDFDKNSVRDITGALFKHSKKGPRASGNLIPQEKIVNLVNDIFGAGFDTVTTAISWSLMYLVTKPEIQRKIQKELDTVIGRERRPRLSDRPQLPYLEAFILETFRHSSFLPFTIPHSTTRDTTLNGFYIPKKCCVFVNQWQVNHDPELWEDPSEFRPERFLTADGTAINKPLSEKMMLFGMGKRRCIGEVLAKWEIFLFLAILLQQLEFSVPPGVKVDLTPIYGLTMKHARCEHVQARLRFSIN

CYP2D6 [1] = target: T2, CYP2D6 (Homo sapiens, UniProt P10635); experiment: biochemical
CYP2C19 = CYP2C19 (Homo sapiens, UniProt P33261); experiment: Direct inhibition of CYP2C19 ((S)-mephenytoin) in human liver microsomes
CYP3A4 [2] = target: T3, CYP3A4 (Homo sapiens, UniProt P08684); experiment: in vitro; details: for % Remaining: duplicates; for IC50: human, microsomes, 30 min pre-incubation
Method: (§1) Donors CMV negative for serology are unm
(§2) All incubations were conducted in duplicate.
% remaining=(C+I/C^−I)*100
Target sequence in this assay (P08684 2-503): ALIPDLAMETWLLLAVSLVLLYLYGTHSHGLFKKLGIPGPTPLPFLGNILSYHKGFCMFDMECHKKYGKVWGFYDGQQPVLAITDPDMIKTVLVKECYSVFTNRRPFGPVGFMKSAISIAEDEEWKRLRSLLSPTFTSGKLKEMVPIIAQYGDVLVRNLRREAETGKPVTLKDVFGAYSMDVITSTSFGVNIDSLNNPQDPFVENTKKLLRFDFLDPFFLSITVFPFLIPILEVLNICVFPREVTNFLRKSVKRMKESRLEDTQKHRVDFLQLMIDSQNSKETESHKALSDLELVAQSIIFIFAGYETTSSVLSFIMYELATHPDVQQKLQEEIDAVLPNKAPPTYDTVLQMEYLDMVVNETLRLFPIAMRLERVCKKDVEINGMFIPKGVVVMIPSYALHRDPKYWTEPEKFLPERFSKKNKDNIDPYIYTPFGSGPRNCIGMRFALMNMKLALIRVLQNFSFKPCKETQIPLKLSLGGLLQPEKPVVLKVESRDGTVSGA

CYP3A4 [3] = details: human, pH 7.4
Method: as §1, §2
(§3) The first order rate constant for inactivation (λ or kabs) was estimated from slopes of the linear portion of the curves.

CYP3A4 [4] = target: T3, CYP3A4; details: microsomes, pH 7.4
Method: as §1, §2, §3
Target sequence in this assay (P08684 whole entry): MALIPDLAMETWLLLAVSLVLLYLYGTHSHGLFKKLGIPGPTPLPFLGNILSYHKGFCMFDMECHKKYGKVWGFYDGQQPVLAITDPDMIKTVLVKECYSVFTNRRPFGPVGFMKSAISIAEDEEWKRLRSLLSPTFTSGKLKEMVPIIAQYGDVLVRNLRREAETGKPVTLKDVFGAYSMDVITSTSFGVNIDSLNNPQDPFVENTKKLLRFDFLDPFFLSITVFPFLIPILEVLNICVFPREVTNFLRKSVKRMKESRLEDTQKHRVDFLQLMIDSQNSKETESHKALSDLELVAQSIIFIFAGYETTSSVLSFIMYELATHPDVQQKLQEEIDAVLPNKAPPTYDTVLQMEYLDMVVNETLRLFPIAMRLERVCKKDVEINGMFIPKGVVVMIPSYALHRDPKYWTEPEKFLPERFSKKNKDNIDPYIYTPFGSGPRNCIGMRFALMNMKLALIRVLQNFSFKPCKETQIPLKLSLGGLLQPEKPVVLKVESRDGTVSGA

CYP2B6 [5] = target: T4, CYP2B6 (Homo sapiens, UniProt P20813); experiment: in vitro; details: pooled human liver microsomes, pH 7.4, probe bupropion
T4 sequence (P20813 1-491): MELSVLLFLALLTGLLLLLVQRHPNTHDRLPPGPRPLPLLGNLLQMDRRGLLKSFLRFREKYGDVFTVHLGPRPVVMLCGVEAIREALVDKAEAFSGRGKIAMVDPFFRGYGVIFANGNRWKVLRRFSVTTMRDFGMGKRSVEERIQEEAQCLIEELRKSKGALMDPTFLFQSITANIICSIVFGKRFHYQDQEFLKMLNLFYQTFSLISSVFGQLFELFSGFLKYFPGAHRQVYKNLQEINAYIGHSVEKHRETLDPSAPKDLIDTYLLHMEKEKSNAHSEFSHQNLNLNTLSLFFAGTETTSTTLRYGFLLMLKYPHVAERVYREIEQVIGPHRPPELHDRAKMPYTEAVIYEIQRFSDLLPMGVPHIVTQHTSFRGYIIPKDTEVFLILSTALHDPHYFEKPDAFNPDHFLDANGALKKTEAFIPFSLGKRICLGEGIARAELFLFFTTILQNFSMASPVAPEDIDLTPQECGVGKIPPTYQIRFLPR

CYP2B6 [6] = target: T4, CYP2B6; details: risdiplam up to 12.5 μM
CYP2D6 [7] = target: T2, CYP2D6; experiment: in vitro; details: pooled human liver microsomes, pH 7.4, probe dextromethorphan, % Control activity at, direct inhibition, substrate Dextromethorphan, concentration not given, duplicates

Sequence of CYP2C19 (P33261 whole entry): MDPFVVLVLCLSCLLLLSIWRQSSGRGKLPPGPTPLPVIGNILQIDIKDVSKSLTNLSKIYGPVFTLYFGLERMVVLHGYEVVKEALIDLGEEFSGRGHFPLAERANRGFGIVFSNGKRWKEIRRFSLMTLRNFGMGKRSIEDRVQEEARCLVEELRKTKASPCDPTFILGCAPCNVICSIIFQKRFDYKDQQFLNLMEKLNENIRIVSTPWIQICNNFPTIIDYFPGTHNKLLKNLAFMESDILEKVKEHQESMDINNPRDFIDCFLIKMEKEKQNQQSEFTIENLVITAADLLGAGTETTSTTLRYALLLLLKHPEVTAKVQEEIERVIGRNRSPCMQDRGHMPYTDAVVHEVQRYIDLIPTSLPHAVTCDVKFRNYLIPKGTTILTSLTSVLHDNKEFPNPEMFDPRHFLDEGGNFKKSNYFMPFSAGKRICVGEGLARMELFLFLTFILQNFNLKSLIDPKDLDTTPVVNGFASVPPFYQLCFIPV
T2 sequence (P10635 whole entry): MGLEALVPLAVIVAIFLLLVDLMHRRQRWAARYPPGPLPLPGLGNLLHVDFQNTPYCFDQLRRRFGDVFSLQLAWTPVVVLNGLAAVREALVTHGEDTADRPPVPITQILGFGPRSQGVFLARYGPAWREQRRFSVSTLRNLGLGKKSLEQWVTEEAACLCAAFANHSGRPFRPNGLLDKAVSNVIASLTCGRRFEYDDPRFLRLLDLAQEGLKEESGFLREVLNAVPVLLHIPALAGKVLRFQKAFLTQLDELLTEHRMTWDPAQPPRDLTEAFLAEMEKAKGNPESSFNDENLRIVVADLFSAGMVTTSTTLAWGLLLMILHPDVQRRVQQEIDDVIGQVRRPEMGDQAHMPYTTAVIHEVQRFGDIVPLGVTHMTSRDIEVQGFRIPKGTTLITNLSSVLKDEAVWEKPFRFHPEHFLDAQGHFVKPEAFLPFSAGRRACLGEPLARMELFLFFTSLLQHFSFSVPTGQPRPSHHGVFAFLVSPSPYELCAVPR

Cc1cn2nc(-c3cc(=O)n4cc(N5CCNC6(CC6)C5)ccc4n3)cc(C)c2n1 [risdiplam, 7-(4,7-diazaspiro[2.5]octan-7-yl)-2-(2,8-dimethylimidazo[1,2-b]pyridazin-6-yl)pyrido[1,2-a]pyrimidin-4-one]
IC50 (CYP1A2): > 12.5 µM | IC50 (CYP2D6 [1]): > 12.5 µM | % Control activity at (CYP2C19; direct inhibition, substrate (S)-Mephenytoin, concentration not given, duplicates): 97% | reversible (direct) inhibition (in words) (CYP2C19; risdiplam up to 12.5 μM): did not show any significant reversible or time-dependent inhibition; also recorded: No significant reversible or time-dependent inhibition; also recorded: No significant reversible inhibition; also recorded: low potential to cause direct or time-dependent inhibition | % Remaining (CYP3A4 [2]; CYP3A4-Midazolam, minus NADPH, risdiplam pre-incubation 0.10 μM): 88% and 103% | % Remaining (CYP3A4 [2]; CYP3A4-Midazolam, minus NADPH, risdiplam pre-incubation 0.20 μM): 99% and 103% | % Remaining (CYP3A4 [2]; CYP3A4-Midazolam, minus NADPH, risdiplam pre-incubation 0.50 μM): 99% and 108% | % Remaining (CYP3A4 [2]; CYP3A4-Midazolam, minus NADPH, risdiplam pre-incubation 1.3 μM): 99% and 110% | % Remaining (CYP3A4 [2]; CYP3A4-Midazolam, minus NADPH, risdiplam pre-incubation 3.2 μM): 99% and 100% | % Remaining (CYP3A4 [2]; CYP3A4-Midazolam, minus NADPH, risdiplam pre-incubation 8.0 μM): 95% and 106% | % Remaining (CYP3A4 [2]; CYP3A4-Midazolam, minus NADPH, risdiplam pre-incubation 12.5 μM): 115% and 108% | % Remaining (CYP3A4 [2]; CYP3A4-Midazolam, plus NADPH, risdiplam pre-incubation 0.10 μM): 101% and 105% | % Remaining (CYP3A4 [2]; CYP3A4-Midazolam, plus NADPH, risdiplam pre-incubation 0.20 μM): 101% and 109% | % Remaining (CYP3A4 [2]; CYP3A4-Midazolam, plus NADPH, risdiplam pre-incubation 0.50 μM): 94% and 109% | % Remaining (CYP3A4 [2]; CYP3A4-Midazolam, plus NADPH, risdiplam pre-incubation 1.3 μM): 90% and 96% | % Remaining (CYP3A4 [2]; CYP3A4-Midazolam, plus NADPH, risdiplam pre-incubation 3.2 μM): 60% and 64% | % Remaining (CYP3A4 [2]; CYP3A4-Midazolam, plus NADPH, risdiplam pre-incubation 8.0 μM): 28% and 30% | % Remaining (CYP3A4 [2]; CYP3A4-Midazolam, plus NADPH, risdiplam pre-incubation 12.5 μM): 22% and 21% | % Remaining (CYP3A4 [2]; CYP3A4-Testosterone, minus NADPH, risdiplam pre-incubation 0.10 μM): 101% and 99% | % Remaining (CYP3A4 [2]; CYP3A4-Testosterone, minus NADPH, risdiplam pre-incubation 0.20 μM): 94% and 93% | % Remaining (CYP3A4 [2]; CYP3A4-Testosterone, minus NADPH, risdiplam pre-incubation 0.50 μM): 100% and 93% | % Remaining (CYP3A4 [2]; CYP3A4-Testosterone, minus NADPH, risdiplam pre-incubation 1.3 μM): 102% and 95% | % Remaining (CYP3A4 [2]; CYP3A4-Testosterone, minus NADPH, risdiplam pre-incubation 3.2 μM): 93% and 102% | % Remaining (CYP3A4 [2]; CYP3A4-Testosterone, minus NADPH, risdiplam pre-incubation 8.0 μM): 90% and 88% | % Remaining (CYP3A4 [2]; CYP3A4-Testosterone, minus NADPH, risdiplam pre-incubation 12.5 μM): 89% | % Remaining (CYP3A4 [2]; CYP3A4-Testosterone, plus NADPH, risdiplam pre-incubation 0.10 μM): 97% and 95% | % Remaining (CYP3A4 [2]; CYP3A4-Testosterone, plus NADPH, risdiplam pre-incubation 0.20 μM): 98% and 93% | % Remaining (CYP3A4 [2]; CYP3A4-Testosterone, plus NADPH, risdiplam pre-incubation 0.50 μM): 94% and 92% | % Remaining (CYP3A4 [2]; CYP3A4-Testosterone, plus NADPH, risdiplam pre-incubation 1.3 μM): 90% and 85% | % Remaining (CYP3A4 [2]; CYP3A4-Testosterone, plus NADPH, risdiplam pre-incubation 3.2 μM): 63% and 62% | % Remaining (CYP3A4 [2]; CYP3A4-Testosterone, plus NADPH, risdiplam pre-incubation 8.0 μM): 23% and 24% | % Remaining (CYP3A4 [2]; CYP3A4-Testosterone, plus NADPH, risdiplam pre-incubation 12.5 μM): 13% | IC50 (CYP3A4 [2]; pH 7.4, IC50, CYP3A4-Midazolam Inactivation, minus NADPH): > 12.5 µM | IC50 (CYP3A4 [2]; pH 7.4, IC50, CYP3A4-Midazolam Inactivation, plus NADPH): 4.8 µM | IC50 (CYP3A4 [2]; pH 7.4, IC50, CYP3A4-Testosterone Inactivation, minus NADPH): > 12.5 µM | IC50 (CYP3A4 [2]; pH 7.4, IC50, CYP3A4-Testosterone Inactivation, plus NADPH): 4.1 µM | KI (CYP3A4 [3]): 13 µM | Percent CYP3A4 activity remaining (CYP3A4 [4]; 0 h, 0.1 μM): 100% | Percent CYP3A4 activity remaining (CYP3A4 [4]; 0 h, 0.2 μM): 100% | Percent CYP3A4 activity remaining (CYP3A4 [4]; 0 h, 0.5 μM): 100% | Percent CYP3A4 activity remaining (CYP3A4 [4]; 0 h, 1.3 μM): 100% | Percent CYP3A4 activity remaining (CYP3A4 [4]; 0 h, 3.2 μM): 100% | Percent CYP3A4 activity remaining (CYP3A4 [4]; 0 h, 8 μM): 100% | Percent CYP3A4 activity remaining (CYP3A4 [4]; 0 h, 12.5 μM): 100% | Percent CYP3A4 activity remaining (CYP3A4 [4]; 4 min, 0.1 μM): 90% | Percent CYP3A4 activity remaining (CYP3A4 [4]; 4 min, 0.2 μM): 90% | Percent CYP3A4 activity remaining (CYP3A4 [4]; 4 min, 0.5 μM): 87% | Percent CYP3A4 activity remaining (CYP3A4 [4]; 4 min, 1.3 μM): 82% | Percent CYP3A4 activity remaining (CYP3A4 [4]; 4 min, 3.2 μM): 89% | Percent CYP3A4 activity remaining (CYP3A4 [4]; 4 min, 8 μM): 76% | Percent CYP3A4 activity remaining (CYP3A4 [4]; 4 min, 12.5 μM): 62% | Percent CYP3A4 activity remaining (CYP3A4 [4]; 0.25 h, 0.1 μM): 80% | Percent CYP3A4 activity remaining (CYP3A4 [4]; 0.25 h, 0.2 μM): 80% | Percent CYP3A4 activity remaining (CYP3A4 [4]; 0.25 h, 0.5 μM): 77% | Percent CYP3A4 activity remaining (CYP3A4 [4]; 0.25 h, 1.3 μM): 71% | Percent CYP3A4 activity remaining (CYP3A4 [4]; 0.25 h, 3.2 μM): 62% | Percent CYP3A4 activity remaining (CYP3A4 [4]; 0.25 h, 8 μM): 41% | Percent CYP3A4 activity remaining (CYP3A4 [4]; 0.25 h, 12.5 μM): 29% | Percent CYP3A4 activity remaining (CYP3A4 [4]; 0.5 h, 0.1 μM): 78% | Percent CYP3A4 activity remaining (CYP3A4 [4]; 0.5 h, 0.2 μM): 78% | Percent CYP3A4 activity remaining (CYP3A4 [4]; 0.5 h, 0.5 μM): 75% | Percent CYP3A4 activity remaining (CYP3A4 [4]; 0.5 h, 1.3 μM): 65% | Percent CYP3A4 activity remaining (CYP3A4 [4]; 0.5 h, 3.2 μM): 49% | Percent CYP3A4 activity remaining (CYP3A4 [4]; 0.5 h, 8 μM): 25% | Percent CYP3A4 activity remaining (CYP3A4 [4]; 0.5 h, 12.5 μM): 17% | Percent CYP3A4 activity remaining (CYP3A4 [4]; 0.75 h, 0.1 μM): 72% | Percent CYP3A4 activity remaining (CYP3A4 [4]; 0.75 h, 0.2 μM): 72% | Percent CYP3A4 activity remaining (CYP3A4 [4]; 0.75 h, 0.5 μM): 68% | Percent CYP3A4 activity remaining (CYP3A4 [4]; 0.75 h, 1.3 μM): 55% | Percent CYP3A4 activity remaining (CYP3A4 [4]; 0.75 h, 3.2 μM): 39% | Percent CYP3A4 activity remaining (CYP3A4 [4]; 0.75 h, 8 μM): 19% | Percent CYP3A4 activity remaining (CYP3A4 [4]; 0.75 h, 12.5 μM): 13% | Percent CYP3A4 activity remaining (CYP3A4 [4]; 1 h, 0.1 μM): 65% | Percent CYP3A4 activity remaining (CYP3A4 [4]; 1 h, 0.2 μM): 65% | Percent CYP3A4 activity remaining (CYP3A4 [4]; 1 h, 0.5 μM): 59% | Percent CYP3A4 activity remaining (CYP3A4 [4]; 1 h, 1.3 μM): 48% | Percent CYP3A4 activity remaining (CYP3A4 [4]; 1 h, 3.2 μM): 36% | Percent CYP3A4 activity remaining (CYP3A4 [4]; 1 h, 8 μM): 15% | Percent CYP3A4 activity remaining (CYP3A4 [4]; 1 h, 12.5 μM): 10% | activity (CYP2B6 [5]): 88% | time-dependent inhibition (in words) (CYP2B6 [6]): did not show any significant reversible or time-dependent inhibition; also recorded: No significant reversible or time-dependent inhibition; also recorded: No significant time-dependent inhibition; also recorded: low potential to cause direct or time-dependent inhibition | activity (CYP2D6 [7]): 97%
